According to patent US10577363B2, “Substituted piperidine compounds” (EPIZYME, INC., priority 2014, dated 2020):

Tests used:
SMYD3 [1] = biological target: T1, SMYD3 (Homo sapiens (Human), UniProt Q9H7B4); experiment: SMYD3 biochemical assay (SPA, 3H-SAM methylation of MEKK2 protein substrate); conditions: read-out: SMYD3 Biochem IC50 (μM)*
How it was run: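 Full-length native human SMYD3 (E. coli-expressed, tags removed) preincubated with compounds 30 min at room temperature, then reaction started with 3H-SAM and GST-tagged MEKK2 protein in 25 mM Tris-Cl pH 8.0, 1 mM TCEP, 0.005% BSG, 0.005% Tween 20. Quenched with unlabelled SAM (100 uM final); 3H-MEKK2 counted by SPA.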

SMYD3 [2] = biological target: T1, SMYD3; experiment: SMYD3 cell assay (Trimethyl-MEKK2 In-Cell Western in 293T/17 cells); type: cell-based
How it was run: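 In-Cell Western ratio of trimethyl-Lys260 MEKK2 to anti-flag signal; percent inhibition from DMSO and maximum-inhibition controls, IC50 by non-linear regression, triplicates.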

[3] = 293T/17 cells, read-out: SMYD3 Cell IC50 (μM)*

T1 sequence (Q9H7B4 whole entry): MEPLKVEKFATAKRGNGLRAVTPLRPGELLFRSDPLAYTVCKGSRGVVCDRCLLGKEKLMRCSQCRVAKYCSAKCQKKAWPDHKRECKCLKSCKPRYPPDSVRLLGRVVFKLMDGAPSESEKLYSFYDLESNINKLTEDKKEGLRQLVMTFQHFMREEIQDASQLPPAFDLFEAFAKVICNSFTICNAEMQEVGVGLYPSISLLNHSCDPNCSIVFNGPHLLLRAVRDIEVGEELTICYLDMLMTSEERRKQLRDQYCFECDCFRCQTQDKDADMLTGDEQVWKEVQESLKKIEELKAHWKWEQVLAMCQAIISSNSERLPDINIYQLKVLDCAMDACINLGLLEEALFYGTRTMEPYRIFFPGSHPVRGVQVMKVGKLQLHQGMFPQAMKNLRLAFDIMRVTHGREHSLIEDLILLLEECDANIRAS

Compound: CC(=O)Nc1ccc(S(=O)(=O)N2CC[C@@H](NC(=O)c3cc(C4CC4)on3)C[C@@H]2C)cc1 [compound 377, N-((2S,4R)-1-((4-acetamidophenyl)sulfonyl)-2-methylpiperidin-4-yl)-5-cyclopropylisoxazole-3-carboxamide]
- IC50 (SMYD3 [1]): > 10 µM
- IC50 (SMYD3 [2]; [3]): 27.6 µM

Compound: CC(=O)Nc1ccc(S(=O)(=O)N2CC[C@H](NC(=O)c3cc(C4CC4)on3)C[C@@H]2C)cc1 [compound 378, N-((2S,4S)-1-((4-acetamidophenyl)sulfonyl)-2-methylpiperidin-4-yl)-5-cyclopropylisoxazole-3-carboxamide]
- IC50 (SMYD3 [1]): 0.577 µM
- IC50 (SMYD3 [2]; [3]): 2.74 µM

Compound: CC(C)CN(C)c1ccc(S(=O)(=O)N2CC[C@H](NC(=O)c3cc(C4CC4)on3)C[C@@H]2C)cn1 [compound 381, 5-cyclopropyl-N-((2S,4S)-1-((6-(isobutyl(methyl)amino)pyridin-3-yl)sulfonyl)-2-methylpiperidin-4-yl)isoxazole-3-carboxamide]
- IC50 (SMYD3 [1]): > 10 µM
- IC50 (SMYD3 [2]; [3]): > 40 µM

Compound: C[C@H]1CN(S(=O)(=O)CCCN)CC[C@@H]1NC(=O)c1cc(C2CC2)on1 [compound 385, N-((3S,4S)-1-((3-aminopropyl)sulfonyl)-3-methylpiperidin-4-yl)-5-cyclopropylisoxazole-3-carboxamide]
- IC50 (SMYD3 [1]): 0.0882 µM
- IC50 (SMYD3 [2]): 1.23 µM

Compound: C[C@@H]1CN(S(=O)(=O)CCCN)CC[C@@H]1NC(=O)c1cc(C2CC2)on1 [compound 387, N-((3R,4S)-1-((3-aminopropyl)sulfonyl)-3-methylpiperidin-4-yl)-5-cyclopropylisoxazole-3-carboxamide]
- IC50 (SMYD3 [1]): 0.07 µM
- IC50 (SMYD3 [2]): 0.788 µM

Compound: NCCCS(=O)(=O)N1CC[C@@H](NC(=O)c2cc(C3CC3)on2)C[C@H]1Cc1ccccc1 [compound 390, N-((2R,4R)-1-((3-aminopropyl)sulfonyl)-2-benzylpiperidin-4-yl)-5-cyclopropylisoxazole-3-carboxamide]
- IC50 (SMYD3 [1]): 0.464 µM
- IC50 (SMYD3 [2]; [3]): 2.97 µM

Compound: C[C@H]1C[C@@H](NC(=O)c2cc(C3CC3)on2)CCN1C(=O)CC1(CN)CCCCC1 [compound 391, N-((2S,4S)-1-(2-(1-(aminomethyl)cyclohexyl)acetyl)-2-methylpiperidin-4-yl)-5-cyclopropylisoxazole-3-carboxamide]
- IC50 (SMYD3 [1]): 5.72 µM
- IC50 (SMYD3 [2]; [3]): > 10 µM

Compound: NCCS(=O)(=O)N1[C@@H]2CC[C@H]1C[C@H](NC(=O)c1cc(C3CC3)on1)C2 [compound 395, N-((1R,3s,5S)-8-((2-aminoethyl)sulfonyl)-8-azabicyclo[3.2.1]octan-3-yl)-5-cyclopropylisoxazole-3-carboxamide]
- IC50 (SMYD3 [1]): 0.611 µM
- IC50 (SMYD3 [2]; [3]): 3.16 µM

Compound: NCCS(=O)(=O)N1[C@@H]2CC[C@H]1C[C@@H](NC(=O)c1cc(C3CC3)on1)C2 [compound 396, N-((1R,3r,5S)-8-((2-aminoethyl)sulfonyl)-8-azabicyclo[3.2.1]octan-3-yl)-5-cyclopropylisoxazole-3-carboxamide]
- IC50 (SMYD3 [1]): 0.0417 µM
- IC50 (SMYD3 [2]; [3]): 0.375 µM

Compound: CC(=O)Nc1ccc(S(=O)(=O)N2CC[C@H](NC(=O)c3cc(C4CC4)on3)C[C@H]2C)cc1 [compound 397, N-((2R,4S)-1-((4-acetamidophenyl)sulfonyl)-2-methylpiperidin-4-yl)-5-cyclopropylisoxazole-3-carboxamide]
- IC50 (SMYD3 [1]): > 10 µM
- IC50 (SMYD3 [2]; [3]): > 10 µM

Compound: C[C@H]1C[C@@H](NC(=O)c2cc(C3CC3)on2)CCN1S(=O)(=O)c1cccc(C#N)c1 [compound 398, N-((2S,4S)-1-((3-cyanophenyl)sulfonyl)-2-methylpiperidin-4-yl)-5-cyclopropylisoxazole-3-carboxamide]
- IC50 (SMYD3 [1]): 0.212 µM
- IC50 (SMYD3 [2]; [3]): 1.21 µM

Compound: O=C(N[C@@H]1C[C@H]2CC[C@@H](C1)N2S(=O)(=O)c1ccccc1)c1cc(C2CC2)on1 [compound 399, 5-cyclopropyl-N-((1R,3s,5S)-8-(phenylsulfonyl)-8-azabicyclo[3.2.1]octan-3-yl)isoxazole-3-carboxamide]
- IC50 (SMYD3 [1]): 0.833 µM
- IC50 (SMYD3 [2]; [3]): 2.87 µM

Compound: O=C(N[C@H]1C[C@H]2CC[C@@H](C1)N2S(=O)(=O)c1ccccc1)c1cc(C2CC2)on1 [compound 400, 5-cyclopropyl-N-((1R,3r,5S)-8-(phenylsulfonyl)-8-azabicyclo[3.2.1]octan-3-yl)isoxazole-3-carboxamide]
- IC50 (SMYD3 [1]): 4.13 µM
- IC50 (SMYD3 [2]; [3]): > 10 µM

Compound: O=C(NC1CC2CCCC(C1)N2S(=O)(=O)c1ccccc1)c1cc(C2CC2)on1 (stereo not shown) [compound 401, 5-cyclopropyl-N-(9-(phenylsulfonyl)-9-azabicyclo[3.3.1]nonan-3-yl)isoxazole-3-carboxamide]
- IC50 (SMYD3 [1]): 0.793 µM
- IC50 (SMYD3 [2]; [3]): 2.95 µM

Compound: CC(=O)Nc1ccc(S(=O)(=O)N2C3CCCC2CC(NC(=O)c2cc(C4CC4)on2)C3)cc1 (stereo not shown) [compound 402, N-(9-((4-acetamidophenyl)sulfonyl)-9-azabicyclo[3.3.1]nonan-3-yl)-5-cyclopropylisoxazole-3-carboxamide]
- IC50 (SMYD3 [1]): 4.92 µM
- IC50 (SMYD3 [2]; [3]): > 10 µM

Compound: CC(=O)Nc1ccc(S(=O)(=O)N2[C@@H]3CC[C@H]2C[C@@H](NC(=O)c2cc(C4CC4)on2)C3)cc1 [compound 403, N-((1R,3r,5S)-8-((4-acetamidophenyl)sulfonyl)-8-azabicyclo[3.2.1]octan-3-yl)-5-cyclopropylisoxazole-3-carboxamide]
- IC50 (SMYD3 [1]): 10 µM
- IC50 (SMYD3 [2]; [3]): > 10 µM

Compound: O=C(N[C@@H]1C[C@H]2CC[C@@H](C1)N2S(=O)(=O)c1ccc2[nH]c(=O)oc2c1)c1cc(C2CC2)on1 [compound 404, 5-cyclopropyl-N-((1R,3s,5S)-8-((2-oxo-2,3-dihydrobenzo[d]oxazol-6-yl)sulfonyl)-8-azabicyclo[3.2.1]octan-3-yl)isoxazole-3-carboxamide]
- IC50 (SMYD3 [1]): 1.4 µM
- IC50 (SMYD3 [2]; [3]): 2.92 µM

Compound: O=C(N[C@H]1C[C@H]2CC[C@@H](C1)N2S(=O)(=O)c1ccc2[nH]c(=O)oc2c1)c1cc(C2CC2)on1 [compound 405, 5-cyclopropyl-N-((1R,3r,5S)-8-((2-oxo-2,3-dihydrobenzo[d]oxazol-6-yl)sulfonyl)-8-azabicyclo[3.2.1]octan-3-yl)isoxazole-3-carboxamide]
- IC50 (SMYD3 [1]): 9.39 µM
- IC50 (SMYD3 [2]; [3]): > 10 µM

Compound: O=C(N[C@@H]1CCN(S(=O)(=O)CCN2CCCC2)[C@H](Cc2ccccc2)C1)c1cc(C2CC2)on1 [compound 407, N-((2R,4R)-2-benzyl-1-((2-(pyrrolidin-1-yl)ethyl)sulfonyl)piperidin-4-yl)-5-cyclopropylisoxazole-3-carboxamide]
- IC50 (SMYD3 [1]): 3.81 µM
- IC50 (SMYD3 [2]; [3]): > 10 µM

Compound: O=C(NC1CC2CCCC(C1)N2S(=O)(=O)CCCN1CCOCC1)c1cc(C2CC2)on1 (stereo not shown) [compound 410, 5-cyclopropyl-N-(9-((3-morpholinopropyl)sulfonyl)-9-azabicyclo[3.3.1]nonan-3-yl)isoxazole-3-carboxamide]
- IC50 (SMYD3 [1]): 6.32 µM
- IC50 (SMYD3 [2]; [3]): > 10 µM

Compound: COCCN(C)c1ccc(S(=O)(=O)N2CC[C@H](NC(=O)c3cc(C4CC4)on3)C[C@@H]2C)cn1 [compound 412, 5-cyclopropyl-N-((2S,4S)-1-((6-((2-methoxyethyl)(methyl)amino)pyridin-3-yl)sulfonyl)-2-methylpiperidin-4-yl)isoxazole-3-carboxamide]
- IC50 (SMYD3 [1]): 2.12 µM
- IC50 (SMYD3 [2]; [3]): 8.22 µM

Compound: COCCNc1ccc(S(=O)(=O)N2CC[C@H](NC(=O)c3cc(C4CC4)on3)C[C@@H]2C)cn1 [compound 413, 5-cyclopropyl-N-((2S,4S)-1-((6-((2-methoxyethyl)amino)pyridin-3-yl)sulfonyl)-2-methylpiperidin-4-yl)isoxazole-3-carboxamide]
- IC50 (SMYD3 [1]): 1.48 µM
- IC50 (SMYD3 [2]; [3]): 4.51 µM

Compound: C[C@H]1C[C@@H](NC(=O)c2cc(C3CC3)on2)CCN1S(=O)(=O)c1ccc(N(C)CCN2CCOCC2)nc1 [compound 414, 5-cyclopropyl-N-((2S,4S)-2-methyl-1-((6-(methyl(2-morpholinoethyl)amino)pyridin-3-yl)sulfonyl)piperidin-4-yl)isoxazole-3-carboxamide]
- IC50 (SMYD3 [1]): 0.889 µM
- IC50 (SMYD3 [2]; [3]): 2.61 µM

Compound: C[C@H]1C[C@H](NC(=O)c2cc(C3CC3)on2)CCN1S(=O)(=O)c1ccc(NCCN)nc1 [compound 415, N-((2S,4R)-1-((6-((2-aminoethyl)amino)pyridin-3-yl)sulfonyl)-2-methylpiperidin-4-yl)-5-cyclopropylisoxazole-3-carboxamide]
- IC50 (SMYD3 [1]): 0.135 µM
- IC50 (SMYD3 [2]; [3]): 5.62 µM

Compound: C[C@H]1CN(C(=O)[C@H]2CC[C@H](N)CC2)[C@@H](C)C[C@H]1NC(=O)c1cc(C2CC2)on1 [compound 419, N-((2S,4R,5S)-1-((1r,4S)-4-aminocyclohexane-1-carbonyl)-2,5-dimethylpiperidin-4-yl)-5-cyclopropylisoxazole-3-carboxamide]
- IC50 (SMYD3 [1]): 1.95 µM
- IC50 (SMYD3 [2]; [3]): > 10 µM

Compound: NCCCS(=O)(=O)N1CC[C@H](NC(=O)c2cc(C3CC3)on2)C[C@H]1Cc1ccccc1 [compound 423, N-((2R,4S)-1-((3-aminopropyl)sulfonyl)-2-benzylpiperidin-4-yl)-5-cyclopropylisoxazole-3-carboxamide]
- IC50 (SMYD3 [1]): 0.25 µM
- IC50 (SMYD3 [2]; [3]): 1.86 µM

Compound: NCCCS(=O)(=O)N1CC[C@H](NC(=O)c2cc(C3CC3)on2)C[C@@H]1Cc1ccccc1 [compound 424, N-((2S,4S)-1-((3-aminopropyl)sulfonyl)-2-benzylpiperidin-4-yl)-5-cyclopropylisoxazole-3-carboxamide]
- IC50 (SMYD3 [1]): 0.228 µM
- IC50 (SMYD3 [2]; [3]): 1.8 µM

Compound: CC1CC(NC(=O)c2cc(C3CC3)on2)CCN1C(=O)Cc1ncc[nH]1 (stereo not shown) [compound 427, N-(1-(2-(1H-imidazol-2-yl)acetyl)-2-methylpiperidin-4-yl)-5-cyclopropylisoxazole-3-carboxamide]
- IC50 (SMYD3 [1]): > 10 µM
- IC50 (SMYD3 [2]; [3]): > 10 µM

Compound: C[C@@H]1C[C@H](NC(=O)c2cc(C3CC3)on2)CCN1S(=O)(=O)c1c[nH]cn1 [compound 428, N-((2R,4R)-1-((1H-imidazol-4-yl)sulfonyl)-2-methylpiperidin-4-yl)-5-cyclopropylisoxazole-3-carboxamide]
- IC50 (SMYD3 [1]): 0.732 µM
- IC50 (SMYD3 [2]; [3]): 2.58 µM
